Assay results taken from patent US4450165A, “Dihydropyridine compounds” (Yoshitomi Pharmaceutical Industries, Ltd., priority 1981, dated 1984).

Key:
[1] = tested on: spontaneously hypertensive rats; assay: Hypotensive activity (systolic blood pressure, indirect tail cuff method); format: in vivo; settings: Rattus norvegicus; oral; before and at 1, 3, 5 and 7 hours; five male spontaneously hypertensive rats; from dose response curve; read-out: ED30 (effective dose which showed the maximum hypotension by 30 mmHg)
Experimental: Five male spontaneously hypertensive rats were used for each experiment. Systolic blood pressure was determined using an indirect tail cuff method before and at 1, 3, 5 and 7 hours following the oral administration of the test compound.

[2] = tested on: vertebral blood flow (right vertebral artery); assay: Effect on vertebral blood flow; format: in vivo, mongrel dogs; settings: anesthetized dogs; for ED100 (effective dose in blood flow): injected into afferent tube, increase in blood flow by papaverine 100 μg taken as 100%; for Duration (time for which the half maximum response remained): vertebral blood flow
Experimental: Under the artificial ventilation, the right vertebral artery was perfused with the arterial blood from the left carotid artery through a short bypass. The perfused flow was measured by means of an electromagnetic flow-meter. The test compound was dissolved in an aqueous solution containing 0.1% dimethyl sulfoxide and 0.01% polyoxyethylene hydrogenated castor oil (cremophor EL®), and injected into the afferent tube. […] The duration was measured as the time for which the half maximum response remained.

[3] = tested on: coronary blood flow (left coronary artery); assay: Effect on coronary blood flow; format: in vivo, mongrel dogs; settings: anesthetized dogs; for ED50 (effective dose in blood flow): injected into afferent cannula, increase in blood flow by nifedipine 10 μg taken as 100%; for Duration (time for which the half maximum response remained): coronary blood flow
Experimental: The perfused flow was measured by means of an electromagnitic flow-meter. The test compound was dissolved in an aqueous solution containing 15% ethanol and 15% polyethylene glycol, and injected into the afferent cannula. […] The duration was measured as the time for which the half maximum response remained.

COC(=O)C1=C(C)NC(C)=C(C(=O)OCCN(C)Cc2ccccc2)C1c1cccc([N+](=O)[O-])c1.Cl (stereo not drawn) [Nicardipine, 2,6-Dimethyl-4-(m-nitrophenyl)-1,4-dihydropyridine-3,5-dicarboxylic acid-3-methylester-5-[2-(N-benzyl-N-methylamino)ethyl]ester hydrochloride, reference compound]
ED (30 mmHg) [1]: 5 mg/kg | ED100 (effective dose in blood flow) [2]: 0.4 µg | Duration (time for which the half maximum response remained) [2]: 1.0 min | ED50 (effective dose in blood flow) [3]: 0.5 µg | Duration (time for which the half maximum response remained) [3]: 3.0 min

COc1ccc(Cc2nccc3cc(OC)c(OC)cc23)cc1OC [Papaverine, reference compound]
ED100 (effective dose in blood flow) [2]: 100 µg

COC(=O)C1=C(C)NC(C)=C(C(=O)OC(CN(C)Cc2ccccc2)c2ccco2)C1c1cccc([N+](=O)[O-])c1.Cl (stereo not drawn) [Test Compound A, 2,6-Dimethyl-4-(m-nitrophenyl)-1,4-dihydropyridine-3,5-dicarboxylic acid-3-methylester-5-[2-(N-benzyl-N-methylamino)-1-(2-furyl)ethyl]ester hydrochloride]
ED (30 mmHg) [1]: 1.3 mg/kg | ED100 (effective dose in blood flow) [2]: 1.0 µg | Duration (time for which the half maximum response remained) [2]: 11.0 min | ED50 (effective dose in blood flow) [3]: 1.5 µg | Duration (time for which the half maximum response remained) [3]: 15.0 min

COC(=O)C1=C(C)NC(C)=C(C(=O)OC(CN(C)Cc2ccccc2)c2cccs2)C1c1cccc([N+](=O)[O-])c1.Cl (stereo not drawn) [Test Compound B, 2,6-Dimethyl-4-(m-nitrophenyl)-1,4-dihydropyridine-3,5-dicarboxylic acid-3-methylester-5-[2-(N-benzyl-N-methylamino)-1-(2-thienyl)ethyl]ester hydrochloride]
ED (30 mmHg) [1]: 1 mg/kg | ED100 (effective dose in blood flow) [2]: 1.8 µg | Duration (time for which the half maximum response remained) [2]: 22.5 min

COC(=O)C1=C(C)NC(C)=C(C(=O)OC)C1c1ccccc1[N+](=O)[O-] [Nifedipine]
ED50 (effective dose in blood flow) [3]: 0.5 µg
